Test results as given in patent US11878972B2, “Treatment of neurological disorders” (TORQUR AG, priority 2016, dated 2024).
Where two headings read alike, the source gives them in different places.

Assays:
[1] = test system: S6 phosphorylation (S235/236); assay: mTOR signaling in brain samples of pilocarpine pre-treated and naïve mice (western blot); type: in vivo, mouse; conditions: for decrease of S6 phosphorylation (S235/236) versus control: brain, 3 hours after single oral dose: Cpd. 3 40 mg/kg, Cpd. 8 25 mg/kg, everolimus 5 mg/kg
Description: A ramping-up dosing protocol was used which has the advantage that pilocarpine can be individually applied according to the susceptibility of each mouse. Pilocarpine (Sigma-Aldrich, Germany) was administered to female NMRI mice intraperitoneally at a dose of 100 mg/kg (Pilo-SE group). […] To reduce peripheral side effects of pilocarpine, methylscopolamine (Sigma-Aldrich, Germany) was administered 30 minutes prior to the first injection of pilocarpine. Animals were continuously monitored and duration of convulsive SE was registered [referred to Racine's scale. SE onset was defined as continuous ongoing seizure activity following occurrence of one or two generalized tonic-clonic seizures [stage 4 or 5 on the Racine scale]. SE was characterized by head nodding in an upright (sitting) body position, Straub tail, and slight to moderate convulsions of forelimbs, sometimes interrupted by further generalized tonic-clonic seizures. In order to reduce mortality, SE was terminated by diazepam (10 mg/kg i.p.; diazepam-ratiopharm 10, injection solution) 90 min after SE onset. […] In the sham-SE group mice were treated with the same treatment scheme as the pilo-SE group but pilocarpine was replaced by 0.9% sodium chloride solution. The mortality in the pilo-SE model in mice is relatively high (overall about 50%) and can vary markedly between experimental groups/days. Therefore we had to start with a large number of mice for SE induction in order to reliably obtain a group size of 20-22 animals for the MEST.
Brain samples from pilocarpine treated mice and untreated mice were snap frozen and tissue was lysed in buffer containing 25 mM Tris-HCl, pH 8, 50 mM NaCl, 0.5% (w/v) sodium deoxycholate (DOC), and 0.5% (w/v) Triton X-100 and supplemented with complete protease inhibitor (Roche, Mannheim, Germany) and Phosphostop (NEB, USA). Disruption of cell lysates was performed by drawing up the cell suspension twenty times into a syringe with a small gauge needle (21 G) on ice. Protein concentrations in the lysates were determined by using the Pierce BCA Protein Assay kit (Thermo Scientific, Bonn, Germany) according to the manufacturer's instructions. […] Membranes were incubated with primary antibodies anti S6 1:1000, anti S6 Phospho Serin (240/244) 1:1000, anti S6 Phospho Serin (235/236) 1:2000 (NEB) and anti-Actin 1:100 (Sigma-Aldrich) for 1 h in 2% milk in PBST at room temperature (RT) and washed three times for 10 min in PBS-T. Secondary antibodies anti-rabbit-HRP 1:1000 (Dako, Hamburg, Germany) were incubated for 1 h in 2% milk in PBST at RT and washed three times for 10 min in PBST. Proteins were detected by enhanced chemiluminescence using SuperSignal West Femto Chemiluminescent Substrate (Thermo Scientific) and the ChemiDoc system (Bio-Rad, Munich, Germany) with QuantityOne software (Bio-Rad) according to the manufacturer's protocol. Relative protein expressions were quantified densitometrically with QuantityOne (Bio-Rad) software and calculated by normalization to the reference signals of actin with GraphPad Prism software (GraphPad, San Diego, CA, USA).
Pilocarpine pre-treated and naïve mice were treated with a single oral dose of Cpd. 3 (40 mg/kg), Cpd. 8 (25 mg/kg), everolimus (5 mg/kg) or vehicle. 5 mice per group were utilized and sacrificed after 3 hours.

[2] = Maximal tolerated dose (MTD) / tolerability in BALB/c nude mice; type: in vivo; conditions: for MTD: female, BALB/c nude, mouse, in vivo, po
Description: In order to find a dose that could be used for further experiments and in order to show tolerability of compounds of the present invention, female BALB/c nude mice were treated with Cpd. 3 and Cpd. 8 by per oral (p.o.) gavage twice for five days with a two day dose holiday in between. Compounds were administered in the following vehicle: 20% Hydroxypropyl-β-cyclodextrin (HPBCD), 10% DMSO and 70% water. The major endpoint was to evaluate the body weight loss and animal survival. The body weights were recorded daily for the dosing days and at least twice weekly thereafter. The animal death was checked daily for survival. Animals were to be evaluated for 7 days post the final dose. The tolerated dose was defined as the dose that results in less than 20% mean body-weight loss, and no treatment related death during the study. The randomized block design was used to assign experimental animals to groups. First, the experimental animals were divided into homogeneous blocks according to their initial body weight. Secondly, within each block, randomization of experimental animals to treatments was conducted.
Animal supplier: Shanghai Lingchang Bio-Technology Co. Ltd (LC, Shanghai, China). Animal Certificate No.: 2013001803305. The mice were kept in individual ventilated cage (IVC) systems at constant temperature and humidity with 5 animals in each cage.
Diet: Mouse diet, C060 irradiation sterilized dry granule food. Animals had free access during the entire study period. Water: RO water, autoclaved before using. Animals had free access to sterile drinking water.
OVCAR-3 and SUDHL/6 tumor bearing BALB/c nude mice were treated with Cpd. 3, p.o. at 100 mg/kg for 21 or 15 consecutive days, respectively under the same conditions. Body weight of the mice was stable.

[3] = test system: 51Q-HTT-Exon1-eGFP transfected HEK cells; assay: Immune cytochemistry, count of mutHTT aggregates; type: cell-based, human; conditions: Cpd. 8 130 nM, Cpd. 3 400 nM
Description: HEK cells were transiently transfected with pcDNA3.1/V5-His vector from Clontech (Mountain View, USA) containing the expression sequence for Exon1 of HTT with a 19Q (no aggregation) or 51Q extension and enhanced green fluorescence protein (eGFP) tag using Attractene Transfection Reagent (Qiagen, Netherlands). 1×10^6 cells were seeded in a 6 well plate. On the next day 2 μg DNA were mixed with 95.5 μl transfection media and 4.5 μl transfection reagent. After an incubation time of 15 min the mixture was added to the cells. After 72 hours cells were harvested or fixed for analysis.
HEK cells were seeded in poly-L-lysine (Sigma-Aldrich, USA) coated coverslips in 24 well plates at 10^4 cells per well and transiently transfected with 19Q- or 51Q-HTT-Exon1-eGFP. Cells were treated with Compounds as described under A for 8 or 24 hours. This incubation ended 72 hours after transfection. Cells were fixed with 4% (para-formaldehyde) PFA. Coverslips were fixed glass slides using mounting media that contained 4′,6-Diamidin-2-phenylindol (DAPI) (FIG. 7C). Nuclei and aggregates containing HTT-Exon1-eGFP were counted manually. 10 000 cells were counted per sample (FIG. 7D).

[4] = test system: STHdh^Q7/Q7 and STHdh^Q111/Q111 cells; assay: LDH assay (cytotoxicity); conditions: for LDH activity compared to control: at higher concentrations; for LDH production: time points between 24 h and 48 h
Description: Cytotoxicity of test compounds was measured using the lactate dehydrogenase (LDH) assay from Roche, Switzerland according to the manufacturer's instructions.
STHdh^Q111/Q111 and STHdh^Q7/Q7 (Coriell Institute for Medical Research, USA) were cultured in DMEM (Invitrogen, USA) supplemented with FBS (Invitrogen, USA) 10%, Geniticine (G418, Biochrom, Germany)) 1% und antibiotic antimycotic (Invitrogen, USA) 1% in a humidified incubator at 37° C. and 5% CO2. […] 10^4 STHdh^Q7/Q7 and STHdh^Q111/Q111 cells per well were seeded in a 96 well plate incubated with Cpd.

[5] = epileptic (pilocarpine pre-treated) mice

Row | Compound | decrease of S6 phosphorylation (S235/236) versus control [1, 5] [fold] | S6 phosphorylation / mTOR signaling in brain (FIG. 3B) ([1]; epileptic/pilocarpine pre-treated and naïve mice, single oral dose) | decrease of S6 phosphorylation (S235/236) versus control ([1]; naïve mice) [fold] | Body weight of the mice ([2]; OVCAR-3 and SUDHL/6 tumor bearing BALB/c nude mice, p.o. 100 mg/kg for 21 or 15 consecutive days) | MTD ([2]; BALB/c mice, p.o., twice for five days with a two day dose holiday, read-out: MTD) [mg/kg] | reduction of number of mutHTT aggregates ([3]; 8 hours of treatment) [%] | reduction of number of mutHTT aggregates ([3]; 24 hours of treatment) [%] | LDH activity compared to control [4] | LDH production [4] | MTD [2] [mg/kg]
1 | Nc1cc(C(F)F)c(-c2nc(N3C4CCC3COC4)nc(N3C4CCC3COC4)n2)cn1 [Compound 3, 5-(4-(3-oxa-8-azabicyclo[3.2.1]octan-8-yl)-6-(3-oxa-8-azabicyclo[3.2.1]octan-8-yl)-1,3,5-triazin-2-yl)-4-(difluoromethyl)pyridin-2-amine] | 4.3 | significantly inhibited S6 phosphorylation in brain | 4.6 | stable | 100 | 66 | 73 | decreased compared to control | reduced LDH production | –
2 | C[C@H]1COCCN1c1nc(-c2cnc(N)cc2C(F)F)nc(N2CCOCC2)n1 [Compound 8, (S)-4-(difluoromethyl)-5-(4-(3-methylmorpholino)-6-morpholino-1,3,5-triazin-2-yl)pyridin-2-amine] | 2.8 | – | 10.9 | – | – | 55 | 77 | decreased compared to control | reduced LDH production | 25
